Among the data in ChEMBL document CHEMBL1139300, “Identification of a small molecule beta-secretase inhibitor that binds without catalytic aspartate engagement” (Bioorg Med Chem Lett, 2009) are IC50 values, retold here.

The target of this experiment is Beta-secretase 1 (Homo sapiens, UniProt P56817). Kind of experiment: Inhibition of BACE1.
Beta-secretase 1, sequence (P56817 whole entry): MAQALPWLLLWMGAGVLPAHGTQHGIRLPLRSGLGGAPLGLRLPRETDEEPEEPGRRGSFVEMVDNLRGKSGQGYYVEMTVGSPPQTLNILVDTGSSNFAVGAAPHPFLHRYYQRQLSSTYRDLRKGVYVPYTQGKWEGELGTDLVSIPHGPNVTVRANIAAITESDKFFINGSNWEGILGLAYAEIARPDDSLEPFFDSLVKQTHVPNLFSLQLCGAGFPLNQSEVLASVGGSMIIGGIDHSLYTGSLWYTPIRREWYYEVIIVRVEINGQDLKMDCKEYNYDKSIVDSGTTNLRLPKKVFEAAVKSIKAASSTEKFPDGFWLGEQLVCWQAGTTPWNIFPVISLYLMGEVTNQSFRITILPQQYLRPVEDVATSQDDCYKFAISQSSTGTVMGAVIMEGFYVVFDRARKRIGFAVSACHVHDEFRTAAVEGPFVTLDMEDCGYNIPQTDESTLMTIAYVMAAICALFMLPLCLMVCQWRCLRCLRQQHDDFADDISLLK

The term IC50 denotes the midpoint of a concentration-inhibition curve. Regarding `Cc1ccc(Nc2cc(-c3ccccc3N(C)C)ncn2)cc1NS(C)(=O)=O`, the half-maximal inhibitory concentration (IC50) was found to be 317 µM.
The value for `Cc1ccc(Nc2cc(-c3ccccc3)ncn2)cc1NS(C)(=O)=O` was 24 µM.
The same measure for `Cc1ccc(Nc2cc(-c3ccc(N(C)C)cc3)ncn2)cc1NS(C)(=O)=O`: 15 µM; for `CS(=O)(=O)Nc1cc(Nc2cc(-c3ccccc3)ncn2)ccc1Cl`: 16 µM; for `COc1ccc(Nc2cc(-c3ccccc3)ncn2)cc1NS(C)(=O)=O`: 69 µM.
Compound `CS(=O)(=O)Nc1cc(Nc2cc(-c3ccccc3)ncn2)ccc1F` showed a 50% inhibitory concentration (IC50) of 110 µM.
The same measure for `C=CCc1ccc(Nc2cc(-c3ccccc3)ncn2)cc1NS(C)(=O)=O`: 570 µM; for `CS(=O)(=O)Nc1cccc(Nc2cc(-c3ccccc3)ncn2)c1`: 400 µM.
The compound `Nc1cc(Nc2cc(-c3ccccc3)ncn2)ccc1Br` displayed an IC50 greater than 600 µM.
The value for `Cc1ccc(Nc2cc(-c3ccc(-c4ccccc4)cc3)ncn2)cc1NS(C)(=O)=O` was 19 µM; that for `CS(=O)(=O)Nc1cc(Nc2cc(-c3ccccc3)ncn2)ccc1Br` was 30 µM.
The value for `CS(=O)(=O)Nc1cc(Nc2cc(-c3ccccc3)ncn2)ccc1-c1ccccc1` was greater than 600 µM; that for `Cc1ccc(Nc2cc(-c3ccccc3C)ncn2)cc1NS(C)(=O)=O` was 219 µM.
For the compound `CC(=O)Nc1cc(Nc2cc(-c3ccccc3)ncn2)ccc1C`, the IC50 is greater than 600 µM.
On to `Cc1ccc(Nc2cc(-c3ccc4c(c3)OCCO4)ncn2)cc1NS(C)(=O)=O`, for which the IC50 was 21 µM.
The same measure for `O=[N+]([O-])c1cc(Nc2cc(-c3ccccc3)ncn2)ccc1Br`: greater than 600 µM.
For the compound `Cc1ccc(Nc2cc(-c3ccc(CCCO)cc3)ncn2)cc1NS(C)(=O)=O`, the IC50 stood at 37 µM.
The same measure for `Cc1ccc(Nc2cc(-c3ccccc3)ncn2)cc1N(C)S(C)(=O)=O`: greater than 1600 µM.
